From PMC9000738, “Diterpenoid Alkaloids Isolated from Delphinium brunonianum and Their Inhibitory Effects on Hepatocytes Lipid Accumulation” (Molecules, 2022)
Like-named read-outs stand apart in the source and are kept apart here.

How the values were obtained:
BRL cells = assay: Cell viability by CCK-8 assay in BRL cells; format: cell-based; details: Rattus norvegicus
Experimental: The cell viability (%) of the isolated diterpenoid alkaloids in the concentration range of 1–500 μM and the time-effectiveness of them for 24 h and 48 h were evaluated using CCK-8 assay (Figure 4). […] The IC50 values of 15 compounds and positive drug were calculated by SPSS 23.0 software. […] Therefore, through the entire experiments, the maximum concentration of tested diterpenoid alkaloids was limited to 10 μM, a concentration about one-tenth to one-fiftieth of IC50 of them. In addition, optimum dosage of modeling agent (FFA) was also selected as the concentration of 0.5 mM through CCK-8 assay (Figure S77).
Buffalo rat liver (BRL) cells were obtained from the Cell Bank, Committee for Typical Culture Preservation, Chinese Academy of Sciences. BRL cells were cultured in DMEM (containing 10% fetal bovine serum and 1% penicillin/streptomycin) under humidified 5% CO2 (v/v) atmosphere at 37 °C. To determine the cell viability of compounds 1–15, the CCK-8 assay was performed. The fifteen isolated compounds were dissolved in DMSO and diluted 1:1000 in culture medium, respectively. Cells were seeded in 96-well plates (6 × 10^3 cells per well) for 24 h incubation and then treatment with different concentrations (1, 10, 20, 50, 100, 200, and 500 µM) of each compound for 24 h or 48 h, respectively. CCK-8 solution (10% of the total solution) was added to each well, further incubated for 1 h at 37 °C. The absorbance was measured at 450 nm using a Multimode Microplate Reader.

FFA-induced HepG2 cells [1] = assay: TG secretion assay in FFA-induced HepG2 cells; format: cell-based; details: 10 µM, 1 mM FFA-induced HepG2 cells
Experimental: Figure S78. Effects of compounds (4, 5, 7, 8, and 12) on TG level in FFA-induced HepG2 cells. HepG2 cells were treated with a mixture of 1 mM FFA in the absence o r presence of compounds (4, 5, 7, 8, and 12) at the concentration of 10 µM. The values are presented as mean ± SEM of six independent experiments. ### p < 0.001, vs. the control group; * p < 0.05, ** p < 0.01, vs. the model group. […]

FFA-induced HepG2 cells [2] = assay: Oil red O staining in FFA-induced HepG2 cells; format: cell-based; details: 10 µM, 1 mM FFA-induced HepG2 cells
Experimental: Figure S79. Oil red O staining of lipid droplets and quantitative analysis in HepG2 cells treated with or without 1 mM FFA mixed compounds 4, 5, 7, 8, and 12 (10 µM), 400 ×; The images shown about quantitative analysis s of red stained cells are representatives of 3 replicates of each. The values are presented as mean ± SEM. ### p < 0.001, vs. the control group; * p < 0.05, ** p < 0.01, vs. the model group. […]

FFA-induced BRL cells [3] = assay: Oil red O staining of lipid droplets and quantitative analysis in FFA-induced BRL cells; format: cell-based, rat; details: 10 µM, 0.5 mM FFA-induced BRL cells; for fold change of red-stained cell area (quantitative analysis of lipid accumulation): ImageJ, p < 0.001 vs. model group; for lipid accumulation by oil red O staining: vs. model group
Experimental: Combined with the oil red O staining and quantitative analysis assay, the effect of reducing lipid accumulation of compounds 4, 5, 7, 8, and 12 was performed in FFA-induced BRL cells. […] Quantitative analysis of lipid accumulation was also analyzed by ImageJ 1.8.0 software by calculating the area of red-stained cells (Figure 7C).
BRL cells were plated in 96-well plates until reaching 70–80% confluence and treated with 0.5 mM FFA mixture and the tested compounds for 24 h. Controls were incubated for the same period in complete medium.
After 24 h of incubation, the cells were fixed with 5% formalin solution for 30 min and then incubated with oil red O working solution for 15 min at room temperature. After that, the cells were washed once with 60% isopropanol and three times with water. The nuclei were stained with hematoxylin solution for 2 min at room temperature. Then, the operation of oil red O staining was referred to the previous research. Finally, the red oil droplets were observed using an optical microscope.

FFA-induced BRL cells [4] = format: cell-based, rat; details: for TG level (TG secretion, lipid accumulation): 10 μM, 24 h, vs. model group; for TG level (TG secretion, lipid accumulation) / TC level / TG level / ALT level / AST level: 0.5 mM FFA-induced BRL cells; for TC level / TG level / ALT level / AST level: 1, 5 or 10 µM; for ALT level / AST level: medium; for inhibitory effects on hepatocytes lipid accumulation: FFA-induced BRL cells, 1, 5 and 10 µM
Experimental: We selected FFA-induced BRL cells (oleate and palmitate ratio was 2:1) to establish a cellular NAFLD model, which is a widely used method by researchers for studying diseases related to hepatocytes lipid accumulation. The TG secretion was measured to preliminarily evaluate the inhibitory effect on lipid accumulation of 15 isolated alkaloid compounds. […] Compounds 1–15 were tested at a concentration of 10 μM in FFA-induced BRL cells to determine their inhibitory effects on hepatocytes TG secretion (Figure 5). Atorvastatin calcium (ATC) is a statin cholesterol-lowering drug and widely used in the clinical treatment of hyperlipidemia and NAFLD, etc.. Therefore, we used atorvastatin calcium (ATC, 10 µM) as a positive control drug.
BRL cells were grown in 24-well plates until 70–80% confluence. Subsequently, 0.5 mM FFA (oleate and palmitate in a final ratio of 2:1) was applied for 24 h to establish an in vitro model of hepatocytes lipid accumulation in the model group, treated with 0.5 mM FFA combination with 1, 5, or 10 µM isolated compounds for 24 h in alkaloids groups. A portion of 1% bovine serum albumin (BSA) was added in BRL cells of the control group. Then, the medium of each group was collected for determination of ALT and AST levels by commercial kits. After removing the medium, 200 µL of 0.25% trypsin was added to digest the cells in 37 °C for 2 min. Then, 500 µL of DMEM that contained 10% fetal bovine serum (FBS) was added to stop digesting. Cells suspension was centrifuged at 800 r/min for 3 min. After adding 200 µL of ethanol, cells were collected and crushed by ultrasonic cell disruptor at 4 °C. Part of the cell fragmentation solution was used for the determination of cell protein content, the other part was used to determine TG and TC levels by commercial kits according to the manufacturer’s instruction.

[5] = BRL cells, CCK-8 assay, concentration range 1–500 μM, incubation time (24 h or 48 h) not stated, read-out: IC50

## CCN1C[C@]2(C)CC[C@H](OC)[C@@]34C1[C@@]1(OCO[C@@]15C[C@H](OC)[C@H]1C[C@@H]3[C@@H]5[C@H]1O)[C@@H](O)[C@H]24 [Compound 6, delpheline]
BRL cells
  IC50: > 500 µM

## CCN1CC2(COC)CCC(O)C34C5CC6C(OC)CC7(OCOC7(C(OC)C23)C14)C5C6O (stereo not shown) [Compound 8, delbrunine]
BRL cells; [5]
  IC50: 408 µM
FFA-induced HepG2 cells [1]
  lipid accumulation by TG secretion assay: good inhibitory effects on lipid accumulation
FFA-induced HepG2 cells [2]
  lipid accumulation by oil red O evaluation: good inhibitory effects on lipid accumulation
FFA-induced BRL cells [3]
  fold change of red-stained cell area (quantitative analysis of lipid accumulation): less than the model group
  lipid accumulation by oil red O staining: significantly reduce lipid accumulation
FFA-induced BRL cells [4]
  TG level (TG secretion, lipid accumulation): better than that of the positive control drug
  TC level: ameliorated
  TG level: ameliorated
  ALT level: ameliorated
  AST level: ameliorated
  inhibitory effects on hepatocytes lipid accumulation: strong inhibitory effects on hepatocytes lipid accumulation in a dose-dependent manner

## CCN1CC2(COC)CCC(O)C34C5CC6C(OC)CC7(OCOC7(C(O)C23)C14)C5C6OC (stereo not shown) [Compound 10, uraphine]
BRL cells
  IC50: > 500 µM

## CCN1CC2(COC)CCC(OC)C34C5CC6C(OC)CC7(OCOC7(C(OC)C23)C14)C5C6O (stereo not shown) [Compound 5, delbruline]
BRL cells; [5]
  IC50: > 500 µM
FFA-induced HepG2 cells [1]
  lipid accumulation by TG secretion assay: good inhibitory effects on lipid accumulation
FFA-induced HepG2 cells [2]
  lipid accumulation by oil red O evaluation: good inhibitory effects on lipid accumulation
FFA-induced BRL cells [3]
  fold change of red-stained cell area (quantitative analysis of lipid accumulation): less than the model group
  lipid accumulation by oil red O staining: significantly reduce lipid accumulation
FFA-induced BRL cells [4]
  TG level (TG secretion, lipid accumulation): better than that of the positive control drug
  TC level: ameliorated
  TG level: ameliorated
  ALT level: ameliorated
  AST level: ameliorated
  inhibitory effects on hepatocytes lipid accumulation: strong inhibitory effects on hepatocytes lipid accumulation in a dose-dependent manner

## CCN1C[C@]2(COC(=O)c3ccccc3N)CC[C@H](OC)[C@]34C1[C@](O)([C@@H](OC)[C@H]23)[C@@]1(O)C[C@H](OC)[C@H]2C[C@@H]4[C@@H]1[C@H]2OC [Compound 11, anthranoyllycoctonine]
BRL cells; [5]
  IC50: 300 to 500 µM

## CCN1CC2(COC)CCC(O)C34C5CC6C(OC)CC(O)(C5C6O)C(O)(C(OC)C23)C14 (stereo not shown) [Compound 9, delcosine]
BRL cells
  IC50: > 500 µM

## CCN1CC2(COC)CCC(OC)C34C5CC6C(OC)CC(O)(C5C6O)C(O)(C(OC)C23)C14 (stereo not shown) [Compound 13, browniine]
BRL cells
  IC50: > 500 µM

## CC(C)c1c(C(=O)Nc2ccccc2)c(-c2ccccc2)c(-c2ccc(F)cc2)n1CC[C@@H](O)C[C@@H](O)CC(=O)O [positive (ATC), Atorvastatin calcium, reference compound]
BRL cells; [5]
  IC50: 88.4 µM

## CCN1CC2(COC(=O)c3ccccc3NC(=O)C(C)CC(=O)O)CCC(OC)C34C5CC6C(OC)CC(O)(C5C6OC)C(O)(C(OC)C23)C14 (stereo not shown) [Compound 14, shawurensine]
BRL cells
  IC50: > 500 µM
FFA-induced BRL cells [4]
  TG level (TG secretion, lipid accumulation): had the effect of inhibiting the lipid accumulation (TG secretion)

## CCN1CC2(COC(=O)c3ccccc3NC(=O)CC(C)C(=O)O)CCC(OC)C34C5CC6C(OC)CC(O)(C5C6OC)C(O)(C(OC)C23)C14 (stereo not shown) [Compound 15, delavaine B]
BRL cells
  IC50: > 500 µM
FFA-induced BRL cells [4]
  TG level (TG secretion, lipid accumulation): had the effect of inhibiting the lipid accumulation (TG secretion)

## CCN1C[C@]2(CO)CC[C@H](OC)[C@@]34[C@@H]5C[C@H]6[C@H](OC)[C@@H]5[C@](O)(C[C@@H]6OC)[C@](O)([C@@H](OC)[C@H]23)[C@@H]14 [Compound 7, lycoctonine]
BRL cells; [5]
  IC50: > 500 µM
FFA-induced HepG2 cells [1]
  lipid accumulation by TG secretion assay: good inhibitory effects on lipid accumulation
FFA-induced HepG2 cells [2]
  lipid accumulation by oil red O evaluation: good inhibitory effects on lipid accumulation
FFA-induced BRL cells [3]
  fold change of red-stained cell area (quantitative analysis of lipid accumulation): less than the model group
  lipid accumulation by oil red O staining: significantly reduce lipid accumulation
FFA-induced BRL cells [4]
  TG level (TG secretion, lipid accumulation): better than that of the positive control drug
  TC level: ameliorated
  TG level: ameliorated
  ALT level: ameliorated
  AST level: ameliorated
  inhibitory effects on hepatocytes lipid accumulation: strong inhibitory effects on hepatocytes lipid accumulation in a dose-dependent manner
